We go through six compounds from US20080081078A1, “Prevention of Cell Proliferation by Inhibiting Myosin Light Chain Kinase” (The Board of Trustees of the University of Illinois, priority 2006, published 2008).

Structures are written as SMILES. *1 amine or outer side, *2 acyl side, *3 side chain or, on linkers, in order; H or OH if unused. Where a SMILES comes first, the peptide text is derived from it. Bridges are numbered along the chain shown (N, C = ends). Roman numbers before positions name the chains, in order. [ ]: non-standard residue; d: D form. The star is where a group is joined. Actinocin(9to1) = Cc1c2oc3c(C)ccc(C(=O)[*:1])c3nc-2c(C(=O)[*:2])c(N)c1=O; NMeV = CN[C@H](C(=O)O)C(C)C; Cbz = O=C(OCc1ccccc1)*; Sar = CNCC(=O)O; CH2F = FC*

Assay [1] has as its system NIH 3T3 cells. In words: Cell death in NIH 3T3 cells. The settings on record: data not shown. Type of assay: cell-based.
Assay [2] has as its system MLC20 phosphorylation. The assay can be described thus: MLC20 phosphorylation by urea gel/Western blotting in NIH 3T3 fibroblasts. The settings on record: 500 nM actinomycin D, 0-24 hours. The format is cell-based. The method, then: NIH 3T3 fibroblasts were obtained from ATCC and were grown in Dulbecco's Modified Eagle Medium (DMEM) (Gibco BRL, Gaithersburg, Md.) supplemented with 10% FBS and 1% penicillin and streptomycin in a 37° C. incubator. 3T3 cells were treated with 500 nM actinomycin D in DMEM containing 0.5% FBS without antibiotics for the 0, 2, 4, 8, 16, or 24 hours. Cells were then washed with phosphate buffered saline (PBS). Floating cells were collected by centrifugation and combined with attached cells that were harvested by trypsinization. MLC20 phosphorylation was quantified be Western blotting with an anti-MLC20 antibody (FIG. 1). In short, the harvested cells were treated with ice cold 10% TCA, 10 mM DTT to precipitate the cellular proteins. The pellets were washed with acetone, dissolved in 9 M urea, 10 mM DTT, 20 mM Tris, pH 7.5 and separated using glycerol-urea polyacrylamide gel electrophoresis (PAGE). […] Protein bands were visualized with ECL reagent and the stoichiometry of phosphorylation (mol PO4/mol MLC20) was calculated as described (Obara et al., 1989, “Okadaic acid, a phosphatase inhibitor, produces a Ca2+ and calmodulin-independent contraction of lamb tracheal smooth muscle,” Pfluger's Archiv. 414: 134-138).

The test system of assay [3] is MLC20 phosphorylation. In words: MLC20 phosphorylation by urea gel/Western blotting in smooth muscle cells (SMC). Type of assay: cell-based, pig. As for the experimental part: NIH 3T3 fibroblasts were obtained from ATCC and were grown in Dulbecco's Modified Eagle Medium (DMEM) (Gibco BRL, Gaithersburg, Md.) supplemented with 10% FBS and 1% penicillin and streptomycin in a 37° C. incubator. 3T3 cells were treated with 500 nM actinomycin D in DMEM containing 0.5% FBS without antibiotics for the 0, 2, 4, 8, 16, or 24 hours. Cells were then washed with phosphate buffered saline (PBS). Floating cells were collected by centrifugation and combined with attached cells that were harvested by trypsinization. MLC20 phosphorylation was quantified be Western blotting with an anti-MLC20 antibody (FIG. 1). In short, the harvested cells were treated with ice cold 10% TCA, 10 mM DTT to precipitate the cellular proteins. The pellets were washed with acetone, dissolved in 9 M urea, 10 mM DTT, 20 mM Tris, pH 7.5 and separated using glycerol-urea polyacrylamide gel electrophoresis (PAGE). The proteins were transferred to nitrocellulose, the un-, mono-, and di-phosphorylated forms of MLC20 were identified using an affinity purified antibody to MLC20 and horseradish peroxidase-linked secondary antibody (Jackson ImmunoResearch, West Grove, Pa.). Protein bands were visualized with ECL reagent and the stoichiometry of phosphorylation (mol PO4/mol MLC20) was calculated as described (Obara et al., 1989, “Okadaic acid, a phosphatase inhibitor, produces a Ca2+ and calmodulin-independent contraction of lamb tracheal smooth muscle,” Pfluger's Archiv. 414: 134-138).
(§1) The stoichiometry of MLC20 phosphorylation (FIG. 1B, inset) was quantified using the urea gel/Western blotting method described above in untreated (Un) pig pulmonary artery smooth muscle cells (SMC) and SMC treated with 10 μM dexamethasone (Dex), 10 μM actinomycin D (ActD), 100 μM cycloheximide (Chx), 2 μM camptothecin (Cam), and 100 μM etoposide (Eto) for 24 hrs (mean+/−SE, n=3).
(§2) Next, in order to determine whether MLC-DP can trigger cell death, SMC were treated with ML-7 or KT5926, two inhibitors of MLCK (Nakanishi et al., 1990; Garcia, 1998; and Bain et al., 2003).
(§3) SMC cells were either treated with 10 μM cytochalasin D (CytD) or grown on the non-ionic substrate polyHema to prevent attachment.

Assay [4] has as its system pig pulmonary artery smooth muscle cells. In words: Cell death / apoptosis in smooth muscle cells (SMC). The format is cell-based. The method, then: as §1, §2, §3
SMC were left untreated, treated with ML-7 alone for 16 hours or treated with 50 μM z-VAD-fmk (caspase) for 1 hr followed by 20 μM ML-7 for 16 hours. […] The results represent the mean+/−SE for 3 independent experiments and * indicates a p value <0.05 using a paired T test.

The subject of assay [5] is SMC. The assay can be described thus: TUNEL staining of SMC. The format is cell-based, pig. As for the experimental part: Also, cells were treated with 50 μM z-VAD-fmk for 1 hour, 20 μM ML-7 for 4 hours or 50 μM z-VAD-fmk for 1 hours followed by 20 μM ML-7 for 4 hours (FIG. 5B). The cells were then fixed and stained with TUNEL reagent and DAPI.
Setting [6] is: 24 hrs, 10 μM Dex, 10 μM ActD, 100 μM Chx, 2 μM Cam, 100 μM Eto.

Consider `CCCOc1ccc2c(c1)c1c3c(c4c5ccccc5n5c4c1n2[C@H]1C[C@](O)(C(=O)OC)[C@]5(C)O1)CNC3=O` (relative stereo) [KT5926, [(8R*,9S*,11S*)-(−)9-hydroxy-9-methoxycarbonyl-8-methyl-14-n-propoxy-2,3,9,10-tetrahydro-8,11-epoxy, 1H,8H, 11H-2,7b,11a-triazadibenzo [a,g]cycloocta [cde]trinden-1-one], for which the cell death entry in assay [1] is “cell death, including genome digestion”.

Regarding `Cc1c2oc3c(C)ccc(C(=O)N[C@@H]4C(=O)N[C@H](C(C)C)C(=O)N5CCC[C@H]5C(=O)N(C)CC(=O)N(C)[C@@H](C(C)C)C(=O)O[C@@H]4C)c3nc-2c(C(=O)N[C@@H]2C(=O)N[C@H](C(C)C)C(=O)N3CCC[C@H]3C(=O)N(C)CC(=O)N(C)[C@@H](C(C)C)C(=O)O[C@@H]2C)c(N)c1=O` [actinomycin D] (I: T[dV]P[Sar][NMeV] / II: T[dV]P[Sar][NMeV]; ester I:1-I:C, II:1-II:C; linker I:N-II:N via Actinocin(9to1)), the MLC20 phosphorylation result in assay [2] is “initial increase in MLC20 phosphorylation that was followed by MLC20 dephosphorylation”; in assay [3] (setting [6]), “dephosphorylated”.

For the compound `CC[C@@]1(O)C(=O)OCc2c1cc1n(c2=O)Cc2cc3ccccc3nc2-1` [camptothecin], the MLC20 phosphorylation result in assay [3] (setting [6]) is listed as “dephosphorylated”.

Regarding `C[C@@H]1C[C@@H]([C@H](O)CC2CC(=O)NC(=O)C2)C(=O)[C@@H](C)C1` [cycloheximide], the MLC20 phosphorylation result in assay [3] (setting [6]) is “dephosphorylated”.

Take `C=C1[C@@H](C)[C@H]2[C@H](Cc3ccccc3)NC(=O)[C@]23[C@H](OC(C)=O)/C=C/[C@@](C)(O)C(=O)[C@@H](C)C/C=C/[C@H]3[C@@H]1O` [cytochalasin D]: the cell death entry in assay [4] (SMC, 10 μM cytochalasin D overnight, vs untreated) is “significant increases”. Further, in assay [3] (10 μM cytochalasin D overnight, vs untreated), the MLC20 phosphorylation entry is reported as “significant decreases”.

Take `COC(=O)C[C@H](NC(=O)[C@H](C)NC(=O)[C@@H](NC(=O)OCc1ccccc1)C(C)C)C(=O)CF` [z-VAD-fmk] (Cbz-Val-Ala-Asp(OMe)-CH2F): in assay [5] (50 μM z-VAD-fmk 1 hour then 20 μM ML-7 4 hours), the “TUNEL positive nuclei in ML-7 treated cells” value is on record as “decreased the number of TUNEL positive nuclei”. In addition, the TUNEL positive nuclei entry in assay [5] (single agent: 50 μM z-VAD-fmk 1 hour or 20 μM ML-7 4 hours) is given as “very few TUNEL positive nuclei”. In addition, the “number of apoptotic cells (FACS)” value in assay [4] (50 μM z-VAD-fmk 1 hr then 20 μM ML-7 16 hours, vs ML-7 alone) is on record as “significant decrease”.
